Data published in ChEMBL document CHEMBL4346765, “Design, synthesis and biological evaluation of novel dithiocarbamate-substituted diphenylaminopyrimidine derivatives as BTK inhibitors” (Bioorg Med Chem, 2019).
The source made the active and inactive calls. The calls are words filed in the database; no cut-off is given here.

Assays:
[1] = Toxicity in NOD/SCID mouse xenografted with human Ramos cells assessed as induction of morphological lesions in kidney at 60 mg/kg/day, ip administered daily for 14 days by H and E staining based histologic analysis; format: organism-based; conditions: in vivo, 336 h
[2] = Toxicity in NOD/SCID mouse xenografted with human Ramos cells assessed as changes in body weight at 30 to 60 mg/kg/day, ip administered daily for 14 days; format: organism-based; conditions: in vivo, 336 h
K562 = assay: Cytotoxicity against human K562 cells assessed as reduction in cell viability at 0.1 to 40 uM incubated for 48 hrs by MTS assay; format: functional, cell-based; conditions: K562, 48 h
Ramos [3] = assay: Antitumor activity in human Ramos cells xenografted in NOD/SCID mouse assessed as reduction in tumor growth at 30 mg/kg/day, ip administered daily for 14 days; format: functional; conditions: 336 h, read-out: TGI
[4] = target: T1, Tyrosine-protein kinase BTK (Homo sapiens, UniProt Q06187); assay: Inhibition of BTK in anti-IgM-stimulated human Ramos cells assessed as reduction in PLCgamma2 phosphorylation at Y1217 residues at 0.01 to 10 uM incubated for 4 hrs followed by anti-IgM stimulation for 30 mins by Western blot analysis; format: cell-based
MDA-MB-231 = assay: Cytotoxicity against human MDA-MB-231 cells assessed as reduction in cell viability at 0.1 to 40 uM incubated for 48 hrs by MTS assay; format: functional, cell-based; conditions: MDA-MB-231, 48 h
HeLa = assay: Cytotoxicity against human HeLa cells assessed as reduction in cell viability at 0.1 to 40 uM incubated for 48 hrs by MTS assay; format: functional, cell-based
Raji [5] = assay: Antiproliferative activity against human Raji cells assessed as reduction in cell growth incubated for 48 hrs by MTS assay
Ramos [6] = assay: Potency index,ratio of Spebrutinib IC50 to compound IC50 for antiproliferative activity against human Ramos cells assessed as reduction in cell growth incubated for 48 hrs by MTS assay; format: functional
[7] = target: T1, Tyrosine-protein kinase BTK; assay: Inhibition of human recombinant full length BTK expressed in baculovirus in Sf9 insect cells using Poly (4:1 Glu, Tyr) as substrate incubated for 1 hr by ADP-Glo assay
[8] = Toxicity in NOD/SCID mouse xenografted with human Ramos cells assessed as induction of morphological lesions in heart at 60 mg/kg/day, ip administered daily for 14 days by H and E staining based histologic analysis; format: organism-based; conditions: in vivo, 336 h
[9] = target: T1, Tyrosine-protein kinase BTK; assay: Inhibition of BTK in anti-IgM-stimulated human Ramos cells assessed as reduction in Erk phosphorylation at 0.01 to 10 uM incubated for 4 hrs followed by anti-IgM stimulation for 30 mins by Western blot analysis; format: cell-based
Raji [10] = assay: Potency index,ratio of Ibrutinib IC50 to compound IC50 for antiproliferative activity against human Raji cells assessed as reduction in cell growth incubated for 48 hrs by MTS assay; format: functional
Raji [11] = assay: Potency index,ratio of Spebrutinib IC50 to compound IC50 for antiproliferative activity against human Raji cells assessed as reduction in cell growth incubated for 48 hrs by MTS assay; format: functional
Jurkat = assay: Cytotoxicity against human Jurkat cells assessed as reduction in cell viability at 0.1 to 40 uM incubated for 48 hrs by MTS assay; format: functional, cell-based
Ramos [12] = assay: Antitumor activity in human Ramos cells xenografted in NOD/SCID mouse assessed as reduction in tumor growth at 60 mg/kg/day, ip administered daily for 14 days; format: functional; conditions: 336 h, read-out: TGI
Ramos [13] = assay: Antiproliferative activity against human Ramos cells assessed as reduction in cell growth incubated for 48 hrs by MTS assay
[14] = target: T1, Tyrosine-protein kinase BTK; assay: Inhibition of BTK in anti-IgM-stimulated human Ramos cells assessed as reduction in Akt phosphorylation at 0.01 to 10 uM incubated for 4 hrs followed by anti-IgM stimulation for 30 mins by Western blot analysis; format: cell-based
NCI-H3122 = assay: Cytotoxicity against human NCI-H3122 cells assessed as reduction in cell viability at 0.1 to 40 uM incubated for 48 hrs by MTS assay; format: functional, cell-based; conditions: NCI-H3122, 48 h
KARPAS-299 = assay: Cytotoxicity against human KARPAS299 cells assessed as reduction in cell viability at 0.1 to 40 uM incubated for 48 hrs by MTS assay; format: functional, cell-based; conditions: KARPAS-299, 48 h
[15] = Toxicity in NOD/SCID mouse xenografted with human Ramos cells assessed as induction of morphological lesions in liver at 60 mg/kg/day, ip administered daily for 14 days by H and E staining based histologic analysis; format: organism-based; conditions: in vivo, 336 h
NCI-H1299 = assay: Cytotoxicity against human H1299 cells assessed as reduction in cell viability at 0.1 to 40 uM incubated for 48 hrs by MTS assay; format: functional, cell-based; conditions: NCI-H1299, 48 h
MCF-10A = assay: Cytotoxicity against human MCF10A cells assessed as reduction in cell viability at 0.1 to 40 uM incubated for 48 hrs by MTS assay; format: cell-based
[16] = Toxicity in NOD/SCID mouse xenografted with human Ramos cells assessed as induction of morphological lesions in spleen at 60 mg/kg/day, ip administered daily for 14 days by H and E staining based histologic analysis; format: organism-based; conditions: in vivo, 336 h
A549 = assay: Cytotoxicity against human A549 cells assessed as reduction in cell viability at 0.1 to 40 uM incubated for 48 hrs by MTS assay; format: functional, cell-based; conditions: A549, 48 h
[17] = target: T1, Tyrosine-protein kinase BTK; assay: Inhibition of BTK in anti-IgM-stimulated human Ramos cells assessed as reduction in autophosphorylation at Y223 residues at 0.01 to 10 uM incubated for 4 hrs followed by anti-IgM stimulation for 30 mins by Western blot analysis; format: cell-based
Ramos [18] = assay: Potency index,ratio of Ibrutinib IC50 to compound IC50 for antiproliferative activity against human Ramos cells assessed as reduction in cell growth incubated for 48 hrs by MTS assay; format: functional
[19] = Cytotoxicity against human HELF cells assessed as reduction in cell viability at 0.1 to 40 uM incubated for 48 hrs by MTS assay; format: cell-based
HepG2 = assay: Cytotoxicity against human HepG2 cells assessed as reduction in cell viability at 0.1 to 40 uM incubated for 48 hrs by MTS assay; format: functional, cell-based; conditions: HepG2, 48 h
786-0 = assay: Cytotoxicity against human 786-O cells assessed as reduction in cell viability at 0.1 to 40 uM incubated for 48 hrs by MTS assay; format: functional, cell-based; conditions: 786-0, 48 h
HT-29 = assay: Cytotoxicity against human HT-29 cells assessed as reduction in cell viability at 0.1 to 40 uM incubated for 48 hrs by MTS assay; format: functional, cell-based; conditions: HT-29, 48 h
Ramos [20] = assay: Induction of apoptosis in human Ramos cells assessed as increase in cleaved PARP1 protein expression at 0.01 to 10 uM incubated for 8 hrs by Western blotting analysis; format: functional, cell-based
MCF7 = assay: Cytotoxicity against human MCF7 cells assessed as reduction in cell viability at 0.1 to 40 uM incubated for 48 hrs by MTS assay; format: functional, cell-based; conditions: MCF7, 48 h
[21] = Toxicity in NOD/SCID mouse xenografted with human Ramos cells assessed as induction of morphological lesions in lung at 60 mg/kg/day, ip administered daily for 14 days by H and E staining based histologic analysis; format: organism-based; conditions: in vivo, 336 h
PC-3 = assay: Cytotoxicity against human PC3 cells assessed as reduction in cell viability at 0.1 to 40 uM incubated for 48 hrs by MTS assay; format: functional, cell-based; conditions: PC-3, 48 h
BJ = assay: Cytotoxicity against human BJ cells assessed as reduction in cell viability at 0.1 to 40 uM incubated for 48 hrs by MTS assay; format: cell-based
HEF = assay: Cytotoxicity against human HEF cells assessed as reduction in cell viability at 0.1 to 40 uM incubated for 48 hrs by MTS assay; format: cell-based

T1 sequence (Q06187 whole entry): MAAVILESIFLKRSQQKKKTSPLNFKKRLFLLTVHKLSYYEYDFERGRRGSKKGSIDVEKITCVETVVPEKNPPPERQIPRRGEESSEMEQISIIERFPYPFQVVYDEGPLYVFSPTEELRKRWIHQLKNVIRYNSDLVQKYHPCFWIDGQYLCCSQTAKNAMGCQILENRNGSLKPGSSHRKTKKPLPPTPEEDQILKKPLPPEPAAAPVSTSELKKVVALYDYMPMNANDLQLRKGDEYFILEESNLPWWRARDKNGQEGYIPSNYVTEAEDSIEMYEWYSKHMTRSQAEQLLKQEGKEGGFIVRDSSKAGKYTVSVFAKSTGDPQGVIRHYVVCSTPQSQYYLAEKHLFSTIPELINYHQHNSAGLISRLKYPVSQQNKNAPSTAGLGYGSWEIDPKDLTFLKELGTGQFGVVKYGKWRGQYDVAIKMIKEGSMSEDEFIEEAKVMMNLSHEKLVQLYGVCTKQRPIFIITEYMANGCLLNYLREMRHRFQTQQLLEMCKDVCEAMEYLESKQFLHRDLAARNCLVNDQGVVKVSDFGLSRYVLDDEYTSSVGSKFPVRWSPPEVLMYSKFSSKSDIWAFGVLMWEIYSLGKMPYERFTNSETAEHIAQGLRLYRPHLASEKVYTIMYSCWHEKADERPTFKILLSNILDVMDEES

inhibition [4]: Dose-dependent effect | IC50 (Raji [5]): 0.706 µM | IC50 [7]: 0.00115 µM | inhibition [9]: inactive | IC50 (Ramos [13]): 0.357 µM | inhibition [14]: Active | inhibition [17]: Active
Compound: C=CC(=O)Nc1cccc(Nc2nc(Nc3ccc(OCCSC(=S)NCc4cccnc4)cc3)ncc2F)c1
Activity [1]: Non-Toxic | Activity [2]: Non-Toxic | IC50 (K562): 3.27 µM | inhibition in vivo at 30 mg/kg/day (Ramos [3]): 21.5% | IC50 (MDA-MB-231): 35.4 µM | IC50 (HeLa): 8.74 µM | Ratio IC50 (Ramos [6]): 10 | Activity [8]: Non-Toxic | Ratio IC50 (Raji [10]): 10 | Ratio IC50 (Raji [11]): 10 | IC50 (Jurkat): 2.49 µM | inhibition in vivo at 60 mg/kg/day (Ramos [12]): 57.8% | IC50 (NCI-H3122): 33.4 µM | IC50 (KARPAS-299): > 40 µM | Activity [15]: Non-Toxic | IC50 (NCI-H1299): 17.9 µM | IC50 (MCF-10A): 8.62 µM | Activity [16]: Non-Toxic | IC50 (A549): 3.2 µM | Ratio IC50 (Ramos [18]): 10 | IC50 [19]: 19.3 µM | IC50 (HepG2): 16.2 µM | IC50 (786-0): 4.96 µM | IC50 (HT-29): 10.2 µM | Activity (Ramos [20]): Active | IC50 (MCF7): 17.4 µM | Activity [21]: Non-Toxic | IC50 (PC-3): 8.25 µM | IC50 (BJ): 12.8 µM | IC50 (HEF): 28.4 µM
